Results taken from patent US7534871B2, “Preparation and use of carbohydrate-based bicyclic ring structures with antimicrobial and cytostatic activity” (Kemin Pharma B.V.B.A., priority 2004, dated 2009).

What was measured:
[1] = system: E. faecalis ATTC29212 LMG 8222; assay: Anti-bacterial activity, Bioscreen C growth curve: E. faecalis; format: cell-based; conditions: Enterococcus faecalis, LMG8222, 35° C., 16 hours, negative control = 100, read-out: % of growth at 25 PPM compared to the negative control, E. faecalis ATTC29212 LMG 8222
Protocol: (§1) For the determination of the anti-bacterial and anti-fungal activity the Bioscreen C Analyser Labsystems, Finland, was used. This is an automated reader-incubator. It measures growth continuously by vertical photometry (optical density), processes the data and provides a print out of the results. The area under the growth curve is automatically determined via the Biolink software.
(§2) The inoculum size of the bacteria is standardized to approximately 5×10^5 CFU/ml.
(§3) For bacteria, the 100-honey-well plates containing test chemical, Mueller-Hinton broth and inoculum (=sample) are incubated at 35° C. for 16 hours. Also wells without inoculum are incubated (=blanco). Yeasts are incubated 35° C. for 24 hours in RPMI 1640+MOPS buffer at 165 mM. Moulds also in RPMI 1640+MOPS buffer at 165 mM are incubated 25° C. for 5 days. All micro-organisms are screened against a known concentration of the reference antibiotics or antimycotics such as vancomycin, penicillin G, gentamicin or amphotericin B. The growth curve and the area under the growth curve can be determined using the Biolink software; this is illustrated in FIG. 1.
(§4) The area of the blanco is subtracted from the area of the sample, this number (delta) gives us an indication of the biological activity of the molecules tested and can be expressed as a % of growth at a specific dose compared to a negative control that has a value of 100, illustrated in FIG. 2. Screening of each dose of a specific compound is repeated 5 times. The dose used for all new molecules in all tests is 25 PPM or 25 μg/ml.
(§5) In Table 4 the results of the anti-bacterial activity is given for the new molecules. The micro-organisms used are Staphylococcus aureus, MRSA, VRE, Enterococcus faecalis, Salmonella typhimurium and Pseudomonas aeruginosa.

VRE ATCC700221 = assay: Anti-bacterial activity, Bioscreen C growth curve: VRE; format: cell-based, vancomycin-resistant Enterococcus (VRE); conditions: Enterococcus, 35° C., 16 hours, negative control = 100, read-out: % of growth at 25 PPM compared to the negative control, VRE ATCC700221
Protocol: as §1, §2, §3, §4, §5

[2] = system: S. aureus ATTC29213 LMG10147; assay: Anti-bacterial activity, Bioscreen C growth curve: S. aureus; format: cell-based; conditions: Staphylococcus aureus, 35° C., 16 hours, negative control = 100, read-out: % of growth at 25 PPM compared to the negative control, S. aureus ATTC29213 LMG10147
Protocol: as §1, §2, §3, §4, §5

MRSA ATCC33591 = assay: Anti-bacterial activity, Bioscreen C growth curve: MRSA; format: cell-based, methicillin-resistant Staphylococcus aureus (MRSA); conditions: for activity at 25 ppm: Staphylococcus aureus, ATCC 33591 / LMG10147 / MRSA, 35° C., 16 hours, negative control = 100, read-out: % of growth at 25 PPM compared to the negative control, MRSA ATCC33591 LMG10147
Protocol: as §1, §2, §3, §4, §5

[3] = system: P. aeruginosa ATCC27853 LMG16217; assay: Anti-bacterial activity, Bioscreen C growth curve: P. aeruginosa; format: cell-based, Pseudomonas aeruginosa; conditions: Pseudomonas aeruginosa; 25 PPM; 35° C., 16 hours; negative control = 100; read-out: % of growth at 25 PPM compared to the negative control, P. aeruginosa ATCC27853 LMG16217
Protocol: as §1, §2, §3, §4, §5

[4] = system: S. typhimurium ATTC700408; assay: Anti-bacterial activity, Bioscreen C growth curve: S. typhimurium; format: cell-based; conditions: Salmonella enterica, LMG16217 / TYPHIMURIUM, 35° C., 16 hours, negative control = 100, read-out: % of growth at 25 PPM compared to the negative control, S. typhimurium ATTC700408 LMG16217
Protocol: as §1, §2, §3, §4, §5

[5] = system: Candida albicans IHEM 10284 - ATCC 24433; assay: Anti-fungal activity, Bioscreen C growth curve: Candida albicans (yeast); format: cell-based; conditions: Candida albicans, ATCC24433; 25 PPM; 35° C., 24 hours; negative control = 100; read-out: % of growth at a dose of 25 PPM compared to the negative control, Candida albicans IHEM 10284 - ATCC 24433
Protocol: as §1
The inoculum size of the yeast is standardized to 0.5-2.5×10^3 CFU/ml.
as §3, §4
(§6) In Table 5 the anti-fungal activity is given for the new molecules. The micro-organisms used were Candida albicans (a typical yeast) and Microsporum gypseum (a typical mold).
as §1, with “Also for” for “For”, “the” for “the anti-bacterial and”, “Labsystems Oy, Finland” for “Labsystems, Finland,”, “used.” for “used. This is an automated reader-incubator.”
(§7) The inoculum size of the yeast is standardized to 0.5-2.5×10^3 CFU/ml. The inoculum size of the mould is standardized to 0.4-5.0×10^4 CFU/ml. Yeasts are incubated 35° C. for 24 hours in RPMI 1640+MOPS buffer at 165 mM. Moulds also in RPMI 1640+MOPS buffer at 165 mM are incubated 25° C. for 5 days.
(§8) As a control, all micro-organisms are screened against some reference antibiotics with known MIC. Screening of each dose of a specific compound is repeated 5 times.

[6] = system: Microsporum gypseum IHEM 3999 - ATCC 14683; assay: Anti-fungal activity, Bioscreen C growth curve: Microsporum gypseum (mold); format: cell-based; conditions: for activity at 25 ppm: Nannizzia gypsea, ATCC14683, 120 h, 25° C., 5 days, negative control = 100, read-out: % of growth at a dose of 25 PPM compared to the negative control, Microsporum gypseum IHEM 3999 - ATCC 14683
Protocol: as §1
The inoculum size of the mould is standardized to 0.4-5.0×10^4 CFU/ml.
as §3, §4, §6
as §1, with “Also for” for “For”, “the” for “the anti-bacterial and”, “Labsystems Oy, Finland” for “Labsystems, Finland,”, “used.” for “used. This is an automated reader-incubator.”
as §7, §8

## CO[C@@H]1[C@@H](OC)[C@H](c2ccccc2)O[C@@H]2COC(=O)CCC=CCCC(=O)O[C@@H]12 [KPE00001040]
[1]
  activity at 25 ppm: 85.1%
VRE ATCC700221
  activity at 25 ppm: 83.4%
[2]
  activity at 25 ppm: 94%
MRSA ATCC33591
  activity at 25 ppm: 99.7%
[3]
  activity at 25 ppm: 78.5%
[4]
  activity at 25 ppm: 89%
[5]
  activity at 25 ppm: 101%
[6]
  activity at 25 ppm: 64%

## CO[C@@H]1[C@@H](OC)[C@H](Sc2ccccc2)O[C@@H]2COCCC/C=C\CCCO[C@@H]12 [KPE00001009.2]
[1]
  activity at 25 ppm: 85.5%
VRE ATCC700221
  activity at 25 ppm: 86.4%
[2]
  activity at 25 ppm: 100%
MRSA ATCC33591
  activity at 25 ppm: 111%
[3]
  activity at 25 ppm: 67.6%
[4]
  activity at 25 ppm: 90.1%
[5]
  activity at 25 ppm: 103%
[6]
  activity at 25 ppm: 54%
[6]; conclusion in text on Table 5
  anti-mold activity, in words: best anti-mold activity

## CO[C@@H]1[C@@H](OC)[C@H](Sc2ccccc2)O[C@@H]2CNC(=O)CC/C=C/CCCO[C@@H]12 [KPE00001042]
[1]
  activity at 25 ppm: 93.3%
VRE ATCC700221
  activity at 25 ppm: 96%
[2]
  activity at 25 ppm: 97%
MRSA ATCC33591
  activity at 25 ppm: 104%
[3]
  activity at 25 ppm: 94.7%
[4]
  activity at 25 ppm: 98%
[5]
  activity at 25 ppm: 90.3%
[6]
  activity at 25 ppm: 79%

## CO[C@@H]1[C@@H](OC)[C@H](c2ccccc2)O[C@@H]2COC(=O)CCC3OC3CCC(=O)O[C@@H]12 (stereo partly shown) [KPE00001039]
[1]
  activity at 25 ppm: 94.1%
VRE ATCC700221
  activity at 25 ppm: 93%
[2]
  activity at 25 ppm: 97.7%
MRSA ATCC33591
  activity at 25 ppm: 102%
[3]
  activity at 25 ppm: 91.3%
[4]
  activity at 25 ppm: 97%
[5]
  activity at 25 ppm: 96.4%
[6]
  activity at 25 ppm: 77%

## CO[C@@H]1[C@@H](OC)[C@H](Sc2ccccc2)O[C@@H]2COCCC/C=C/CCCO[C@@H]12 [KPE00001009.1]
[1]
  activity at 25 ppm: 87.5%
VRE ATCC700221
  activity at 25 ppm: 82%
[2]
  activity at 25 ppm: 98.3%
MRSA ATCC33591
  activity at 25 ppm: 107%
[3]
  activity at 25 ppm: 91.6%
[4]
  activity at 25 ppm: 90.1%
[5]
  activity at 25 ppm: 93.9%
[6]
  activity at 25 ppm: 60%

## CO[C@H]1[C@@H]2OC(=O)CC/C=C/CCC(=O)OC[C@H]2OC[C@@H]1OC [KPE00001006]
[1]
  activity at 25 ppm: 92.5%
VRE ATCC700221
  activity at 25 ppm: 96.5%
[2]
  activity at 25 ppm: 94.7%
MRSA ATCC33591
  activity at 25 ppm: 99.7%
[3]
  activity at 25 ppm: 87.3%
[4]
  activity at 25 ppm: 94.6%
[5]
  activity at 25 ppm: 93.1%
[6]
  activity at 25 ppm: 62%

## CO[C@@H]1[C@@H](OC)[C@H](O)[C@@H](CO)O[C@H]1Cc1ccccc1 [KPE00001020]
[1]
  activity at 25 ppm: 98.4%
VRE ATCC700221
  activity at 25 ppm: 99%
[2]
  activity at 25 ppm: 97.9%
MRSA ATCC33591
  activity at 25 ppm: 99%
[3]
  activity at 25 ppm: 94.4%
[4]
  activity at 25 ppm: 92.3%
[5]
  activity at 25 ppm: 91%
[6]
  activity at 25 ppm: 78%

## CO[C@H]1[C@H](OC)[C@H](OC)COC/C=C/COC[C@H]2OC[C@H](OC)[C@@H](OC)[C@@H]2OC(=O)NC[C@@H]1OC [KPE00001056]
[1]
  activity at 25 ppm: 111%
VRE ATCC700221
  activity at 25 ppm: 91%
[2]
  activity at 25 ppm: 105%
MRSA ATCC33591
  activity at 25 ppm: 113%
[3]
  activity at 25 ppm: 106%
[4]
  activity at 25 ppm: 93.7%
[5]
  activity at 25 ppm: 101%
[6]
  activity at 25 ppm: 77%

## CO[C@@H]1[C@@H](OC)[C@H](Sc2ccccc2)O[C@@H]2COC(=O)CCC(O)C(O)CCC(=O)O[C@@H]12 (stereo partly shown) [KPE00001007]
[1]
  activity at 25 ppm: 97%
VRE ATCC700221
  activity at 25 ppm: 93%
[2]
  activity at 25 ppm: 94.9%
MRSA ATCC33591
  activity at 25 ppm: 97.8%
[3]
  activity at 25 ppm: 86.2%
[4]
  activity at 25 ppm: 89.7%
[5]
  activity at 25 ppm: 94.7%
[6]
  activity at 25 ppm: 76%

## CO[C@@H]1[C@@H](OC)[C@H](Sc2ccccc2)O[C@@H]2CNC(=O)CCC=CCCC(=O)O[C@@H]12 [KPE00001041]
[1]
  activity at 25 ppm: 68.2%
VRE ATCC700221
  activity at 25 ppm: 93%
[2]
  activity at 25 ppm: 56.7%
MRSA ATCC33591
  activity at 25 ppm: 75.6%
MRSA ATCC33591; conclusion on Table 4
  anti-bacterial activity against gram-positive bacteria including MRSA, in words: good anti-bacterial activity
[3]
  activity at 25 ppm: 83.3%
[4]
  activity at 25 ppm: 96.6%
[5]
  activity at 25 ppm: 78.1%
[6]
  activity at 25 ppm: 81%

## O=C1CC/C=C/CCC(=O)O[C@H]2[C@H](OCc3ccccc3)[C@@H](OCc3ccccc3)[C@H](Sc3ccccc3)O[C@@H]2CO1 [KPE00001037]
[1]
  activity at 25 ppm: 97.6%
VRE ATCC700221
  activity at 25 ppm: 90%
[2]
  activity at 25 ppm: 98.5%
MRSA ATCC33591
  activity at 25 ppm: 107%
[3]
  activity at 25 ppm: 89.3%
[4]
  activity at 25 ppm: 91%
[5]
  activity at 25 ppm: 87.4%
[6]
  activity at 25 ppm: 73%

## CO[C@H]1[C@@H]2OC(=O)CCCCCCC(=O)OC[C@H]2OC[C@@H]1OC [KPE00001010]
[1]
  activity at 25 ppm: 90.6%
VRE ATCC700221
  activity at 25 ppm: 93%
[2]
  activity at 25 ppm: 102%
MRSA ATCC33591
  activity at 25 ppm: 110%
[3]
  activity at 25 ppm: 80.7%
[4]
  activity at 25 ppm: 88.8%
[5]
  activity at 25 ppm: 95.5%
[6]
  activity at 25 ppm: 60%

## CO[C@@H]1[C@@H](OC)[C@H](O)[C@@H](CO)O[C@H]1Sc1ccccc1 [KPE00001011]
[1]
  activity at 25 ppm: 89%
VRE ATCC700221
  activity at 25 ppm: 79%
[2]
  activity at 25 ppm: 89%
MRSA ATCC33591
  activity at 25 ppm: 90.5%
[3]
  activity at 25 ppm: 85%
[4]
  activity at 25 ppm: 92.1%
[5]
  activity at 25 ppm: 79.3%
[6]
  activity at 25 ppm: 76.4%
